According to patent publication US6806230B1, “Pyrimidine derivatives and herbicides containing them” (Kumiai Chemical Industry Co., Ltd., priority 1999, dated 2004):

What was measured:
Type in all cases: in vivo
[1] = system: monochoria (Mo); test: Test Example 1: herbicidal effects by flooded paddy field treatment; design: herbicidal effects, Mo (monochoria):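 0-5 growth inhibition grade; 5 = over 90%; 4 = 70-90%; 3 = 50-70%; 2 = 30-50%; 1 = 10-30%; 0 = under 10%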; conditions: for herbicidal effects, Mo (monochoria): dose 100 g active ingredient per 10 ares, examined on the 21st day after treatment, standards of Table 44; for Herbicidal effect index, Mo: dose 100 gai/10a, examined on 21st day after treatment, index 0-5 per Table 44;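 for Herbicidal effect index, Mo: 0-5 growth inhibition grade; 5 = over 90%; 4 = 70-90%; 3 = 50-70%; 2 = 30-50%; 1 = 10-30%; 0 = under 10%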
Procedure: (§1) In a 100 cm^2 plastic pot, paddy field soil was filled and paddled. Then, seeds of barnyard grass (Eo) and monochoria (Mo) were sown, and water was introduced to a depth of 3 cm. Next day, a wettable powder prepared in accordance with Formulation Example 1 was diluted with water and dropwise applied to the water surface. The dose was 100 g of the active ingredient per 10 ares. Thereafter, cultivation was carried out in a green house, and on the 21st day after the treatment, the herbicidal effects were examined in accordance with the standards as identified in Table 44.

[2] = system: barnyard grass (Eo); test: as above; design: herbicidal effects, Eo (barnyard grass):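 0-5 growth inhibition grade; 5 = over 90%; 4 = 70-90%; 3 = 50-70%; 2 = 30-50%; 1 = 10-30%; 0 = under 10%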; conditions: for herbicidal effects, Eo (barnyard grass): dose 100 g active ingredient per 10 ares, examined on the 21st day after treatment, standards of Table 44; for Herbicidal effect index, Eo: dose 100 gai/10a, examined on 21st day after treatment, index 0-5 per Table 44
Procedure: as §1

[3] = system: barnyard grass (Ec); test: Test Example 2: herbicidal effects by upland soil treatment; design: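 0-5 growth inhibition grade; 5 = over 90%; 4 = 70-90%; 3 = 50-70%; 2 = 30-50%; 1 = 10-30%; 0 = under 10%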; conditions: dose 100 g active ingredient per 10 ares, examined on the 21st day after treatment
Procedure: In a 80 cm^2 plastic pot, upland soil was filled, and seeds of barnyard grass (Ec) and green foxtail (Se) were sown and covered with soil. A wettable powder prepared in accordance with Formulation Example 1 was diluted with water and uniformly applied to the soil surface by means of a small size spray at a rate of 100 l per 10 ares, so that the dose of the active ingredient would be 100 g per 10 ares. Thereafter, cultivation was carried out in a green house, and on the 21st day after the treatment, the herbicidal effects were examined in accordance with the standards as identified in Table 44.
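Throughout, for Herbicidal effect index, Eo: 0-5 growth inhibition grade; 5 = over 90%; 4 = 70-90%; 3 = 50-70%; 2 = 30-50%; 1 = 10-30%; 0 = under 10%.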

Structure (SMILES) | herbicidal effects, Mo (monochoria) [1] | herbicidal effects, Eo (barnyard grass) [2] | Ec (herbicidal effects, index) [3] | Herbicidal effect index, Mo [1] | Herbicidal effect index, Eo [2]
CN(C(=O)Cc1cccc(F)c1)C(c1ccccc1)c1cncnc1C(F)(F)F (racemic) [Compound 1-266] | 5 | 5 | 5 | – | –
CN(C(=O)Cc1ccsc1)C(c1cncnc1C(F)(F)F)C(C)(C)C (racemic) [2-14] | 5 | 5 | 5 | – | –
CSCC(c1cncnc1C(F)(F)F)N(C)C(=O)Cc1cccc(F)c1 (racemic) [1-420] | 5 | 5 | – | – | –
C#CCN(C(=O)C(C)c1ccccc1)C(c1cncnc1CC)C(C)C (mixture of isomers) [1-562] | 5 | 5 | 5 | – | –
CC(C)C(c1cncnc1-c1ccccc1)N(C)C(=O)Cc1ccccc1 (racemic) [1-322] | 5 | 5 | – | – | –
CC(C)C(c1cncnc1-c1ccccc1)N(C)C(=O)Cc1ccc(F)cc1 (racemic) [1-323] | 5 | 5 | 4 | – | –
CN(C(=O)Cc1ccc(F)cc1F)C(c1cncnc1C(F)(F)F)C(C)(C)C (racemic) [Compound 1-273] | 5 | 5 | 5 | – | –
CCOC(OCC)c1ncncc1C(C(C)C)N(C)C(=O)Cc1ccc(Cl)cc1 (racemic) [1-469] | 5 | 5 | – | – | –
CC(C)c1ncncc1C(C(C)C)N(C)C(=O)Cc1ccsc1 (racemic) [2-24] | 5 | 5 | 5 | – | –
C#CCN(C(=O)Cc1ccccc1)C(c1cncnc1C(C)C)C(C)C (racemic) [1-621] | – | – | 5 | – | –
C#CCN(C(=O)Cc1ccc(C)cc1)C(c1cncnc1CC)C(C)C (racemic) [1-561] | 5 | 5 | 5 | – | –
CSCC(c1cncnc1C(F)(F)F)N(C)C(=O)Cc1ccc(Cl)cc1 (racemic) [1-414] | 5 | 5 | 4 | – | –
CC(C)C(c1cncnc1C(F)(F)Cl)N(C)C(=S)Oc1ccccc1 (racemic) [1-641] | 5 | 5 | 5 | – | –
CC(C)C(c1cncnc1C(F)(F)Cl)N(C)C(=O)Oc1ccc(Cl)cc1 (racemic) [1-185] | 5 | 5 | – | – | –
CC(C)C(c1cncnc1C=O)N(C)C(=O)Cc1ccc(Cl)cc1 (racemic) [1-524] | 5 | 5 | 5 | – | –
COCc1ncncc1C(C(C)C)N(C)C(=O)Cc1ccc(Cl)s1 (racemic) [2-77] | 5 | 5 | 5 | – | –
CSCC(c1cncnc1C(F)(F)F)N(C)C(=O)Cc1ccc(Cl)cc1F (racemic) [1-422] | 5 | 5 | – | – | –
CN(C(=O)Cc1ccc(C(F)(F)F)cc1)C(c1cncnc1C(F)(F)F)C(C)(C)C (racemic) [1-305] | 5 | 5 | 5 | – | –
CN(C(=O)Cc1ccc(F)cc1)C(c1ccc(F)cc1F)c1cncnc1C(F)(F)F (racemic) [1-555] | 5 | 5 | 5 | – | –
CC(C)c1ncncc1C(C=NO)N(C)C(=O)OCc1ccccc1 (racemic) [1-531] | – | – | 4 | – | –
CCc1ncncc1C(C(C)C)N(C)C(=O)Cc1ccc(F)cc1 (racemic) [1-433] | 5 | 5 | 5 | – | –
CON(C(=O)Cc1ccccc1)C(c1cncnc1C(F)(F)F)C(C)C (racemic) [1-332] | – | – | 5 | – | –
CC(C)C(c1cncnc1C(F)(F)F)N(C)C(=O)C(=O)c1ccccc1 (racemic) [1-328] | 5 | 5 | 5 | – | –
CSC(C(=O)N(C)C(c1cncnc1C(F)(F)F)C(C)C)c1ccc(Cl)cc1 (mixture of isomers) [Compound 1-154] | 5 | 5 | – | – | –
CN(C(=O)Cc1ccccc1F)C(c1cncnc1C(F)(F)F)C1CCCC1 (racemic) [Compound 1-156] | 5 | 5 | – | – | –
C#CCN(C(=O)Cc1ccc(Cl)cc1)C(c1cncnc1CCC)C(C)C (racemic) [1-618] | – | – | 5 | – | –

Structure (SMILES) | herbicidal effects, Mo (monochoria) [1] | herbicidal effects, Eo (barnyard grass) [2] | Ec (herbicidal effects, index) [3] | Herbicidal effect index, Mo [1] | Herbicidal effect index, Eo [2]
CC(C)C(c1cncnc1C(F)(F)Cl)N(C)C(=O)Oc1ccc(F)cc1 (racemic) [1-184] | 5 | 5 | – | – | –
C#CCN(C(=O)Cc1ccc(F)cc1)C(c1cncnc1C(F)(F)F)C(C)(C)C (racemic) [1-620] | – | – | 5 | – | –
C#CCN(C(=O)Cc1ccc(Cl)cc1)C(c1cncnc1C(C)C)C(C)C (racemic) [1-623] | – | – | 5 | – | –
CSCC(c1cncnc1C(F)(F)F)N(C)C(=O)Cc1ccc(F)cc1 (racemic) [1-413] | 5 | 5 | – | – | –
Cc1ccc(OC(=O)N(C)C(c2cncnc2C(F)(F)Cl)C(C)C)cc1 (racemic) [1-636] | – | – | 4 | – | –
COc1ccc(OC(=O)N(C)C(c2cncnc2C(F)(F)Cl)C(C)C)cc1 (racemic) [1-637] | 5 | 5 | – | – | –
CC(C)c1ncncc1C(C(C)C)N(C)C(=O)Nc1ccccc1 (racemic) [1-326] | – | – | 4 | – | –
C#CCN(C(=O)Cc1ccccc1)C(c1cncnc1CCC)C(C)C (racemic) [1-616] | – | – | 5 | – | –
CC(C)C(c1cncnc1C=O)N(C)C(=O)Cc1ccc(F)cc1 (centres unmarked) [Compound 1-523, N-[1-(4-formylpyrimidin-5-yl)-2-methylpropyl]-N-methyl-4-fluorophenylacetamide] | – | – | 4 | – | –
CSCC(c1cncnc1C(F)(F)F)N(C)C(=O)Cc1ccc(Br)cc1 (racemic) [1-415] | 5 | 5 | – | – | –
CC(C)C(c1cncnc1C=NO)N(C)C(=O)Cc1ccc(F)cc1 (racemic) [1-501] | 5 | 5 | – | – | –
CC(C)C(c1cncnc1C(F)(F)F)N(C)C(=O)COc1nnc(C(F)(F)F)s1 (racemic) [2-47] | – | – | 4 | – | –
CC(C)C(c1cncnc1C(F)(F)F)N(C)C(=O)Cn1cc(Br)cn1 (racemic) [2-41] | 5 | 5 | – | – | –
CCc1ncncc1C(CC)N(C)C(=O)Oc1ccc(Cl)cc1 (racemic) [1-646] | – | – | 4 | – | –
CC(C)C(c1cncnc1C(F)(F)F)N(C)C(=O)Oc1ccc(Cl)cc1 (racemic) [1-178] | 4 | 5 | – | – | –
CCOC(=O)c1ncncc1C(C(C)C)N(C)C(=O)C(C)c1ccc(Cl)cc1 (single isomer, unassigned) [1-595] | 5 | 5 | – | – | –
COC(C)(OC)C(c1cncnc1C(C)C)N(C)C(=O)Cc1ccc(F)cc1 (racemic) [1-510] | 5 | 5 | – | – | –
CC(C)C(c1cncnc1C(F)(F)Cl)N(C)C(=O)Oc1ccccc1 (racemic) [Compound 1-19] | – | – | – | 5 | 5
CC(C)C(c1cncnc1C(F)(F)Cl)N(C)C(=O)Oc1cccc2ccccc12 (racemic) [2-80] | 4 | 5 | – | – | –
CON=Cc1ncncc1C(C(C)C)N(C)C(=O)OCc1ccccc1 (racemic) [1-471] | – | – | 5 | – | –
Cc1ccc(CC(=O)N(C)C(C)c2cncnc2C(C)(C)C)cc1 (racemic) [1-191] | 5 | 5 | – | – | –
COC(OC)c1ncncc1C(C(C)C)N(C)C(=O)C(C)c1ccc(Cl)cc1 (mixture of isomers) [1-625] | – | – | 4 | – | –
CC(C)C(c1cncnc1C(F)(F)F)N(C)C(=O)Cc1ccncc1 (racemic) [2-5] | 5 | 5 | – | – | –
CON=CC(c1cncnc1C(C)C)N(C)C(=O)OCc1ccccc1 (racemic) [1-466] | – | – | 4 | – | –
CN(C(=O)Cc1ccc(Cl)cc1)C(c1cncnc1C(F)(F)Cl)C1CC1 (racemic) [Compound 1-94] | – | – | – | 5 | 5
CSCC(c1cncnc1C(F)(F)F)N(C)C(=O)Cc1ccc(C)cc1 (racemic) [1-421] | 5 | 5 | – | – | –
